Patent US20190010158A1, “ANTITUMOR EFFECT POTENTIATOR COMPRISING PYRROLOPYRIMIDINE COMPOUND” (TAIHO PHARMACEUTICAL CO., LTD, priority 2015, published 2019)
Counter-ions that a name gives are not always drawn.

Tests used:
[1] = test system: human prostate cancer LNCAP.FGC cell line; experiment: Cell growth inhibition 2, LNCaP.FGC; assay type: cell-based
[2] = test system: human multiple myeloma U266B1 cell line; experiment: Cell growth inhibition 2, U266B1; assay type: cell-based
[3] = test system: human diffuse large B-cell lymphoma DB cell line; experiment: Cell growth inhibition 2, DB; assay type: cell-based
[4] = test system: human acute T lymphoblastic leukemia CCRF-CEM cell lines; experiment: Cell growth inhibition 1 (CellTiter-Glo); assay type: cell-based; details: culture with test compound 72 hours
[5] = test system: human pancreatic cancer Capan-1 cell line; experiment: Cell growth inhibition 2, Capan-1; assay type: cell-based
[6] = test system: human breast cancer MDA-MB-453 cell line; experiment: Cell growth inhibition 2, MDA-MB-453; assay type: cell-based
[7] = test system: human skin cancer A-431 cell line; experiment: Cell growth inhibition 2, A-431; assay type: cell-based
[8] = test system: human colon cancer HCT116 cell line; experiment: Cell growth inhibition 2, HCT116; assay type: cell-based; details: HCT-116
[9] = test system: human acute leukemia MV-4-11 cell line; experiment: Cell growth inhibition 2, MV-4-11; assay type: cell-based; details: MV4-11
[10] = test system: human lung cancer A-427 cell line; experiment: Cell growth inhibition 2, A-427; assay type: cell-based
[11] = test system: tumor cell lines shown in Table 50; experiment: Example 15: combined use with anthracycline-based antitumor agent, cell growth inhibition test (IC50 ratio, CI); details: for IC50 Ratio: IC50 of Reference Example Compound 55 : IC50 of other compound = 1:value; for CI: at ED50; for Comprehensive Evaluation: combined use with Reference Example Compound 55
[12] = test system: HL-60; experiment: Example 1: combined use with proteasome inhibitor, cell growth inhibition test (IC50 ratio, CI), HL-60; assay type: cell-based; details: for CI: at ED50
[13] = test system: tumor cell lines shown in Table 40; experiment: Example 10: combined use with HDAC inhibitor, cell growth inhibition test (IC50 ratio, CI); assay type: cell-based; details: U266B1; for CI: at ED50; for Comprehensive Evaluation: combined use with Reference Example Compound 55
[14] = test system: human osteo- and soft tissue sarcoma SJCRH30 cell line; experiment: Cell growth inhibition 2, SJCRH30; assay type: cell-based
[15] = target: T1, NAE (heterodimer of APPBP1 and UBA3) (Homo sapiens, UniProt Q8TBC4); experiment: Nedd8 conjugation inhibitory activity (AlphaScreen); assay type: biochemical; details: purified NAE, GST-UBC12, ATP, Biotin-Nedd8, reaction 90 minutes
T1 construct: amino acids 1 to 463 of human UBA3 protein; made in house; host or cells: Sf9 insect cells (baculovirus co-infection) for NAE; E. coli BL21 (DE3) for GST-UBC12
T1 sequence (Q8TBC4 1-463): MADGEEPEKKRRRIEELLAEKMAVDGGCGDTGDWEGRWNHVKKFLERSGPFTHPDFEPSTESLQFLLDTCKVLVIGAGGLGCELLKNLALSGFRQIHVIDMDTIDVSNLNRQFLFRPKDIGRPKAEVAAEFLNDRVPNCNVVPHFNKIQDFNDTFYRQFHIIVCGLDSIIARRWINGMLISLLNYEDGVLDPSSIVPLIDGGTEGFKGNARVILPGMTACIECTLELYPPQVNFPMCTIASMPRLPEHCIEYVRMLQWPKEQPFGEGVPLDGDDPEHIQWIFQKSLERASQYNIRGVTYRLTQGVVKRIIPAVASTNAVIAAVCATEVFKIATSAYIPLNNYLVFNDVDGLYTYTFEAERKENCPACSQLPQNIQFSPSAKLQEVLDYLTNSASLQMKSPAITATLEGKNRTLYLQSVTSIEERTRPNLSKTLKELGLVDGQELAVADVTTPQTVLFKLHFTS
T1 sequence (Q13564 1-534 partner): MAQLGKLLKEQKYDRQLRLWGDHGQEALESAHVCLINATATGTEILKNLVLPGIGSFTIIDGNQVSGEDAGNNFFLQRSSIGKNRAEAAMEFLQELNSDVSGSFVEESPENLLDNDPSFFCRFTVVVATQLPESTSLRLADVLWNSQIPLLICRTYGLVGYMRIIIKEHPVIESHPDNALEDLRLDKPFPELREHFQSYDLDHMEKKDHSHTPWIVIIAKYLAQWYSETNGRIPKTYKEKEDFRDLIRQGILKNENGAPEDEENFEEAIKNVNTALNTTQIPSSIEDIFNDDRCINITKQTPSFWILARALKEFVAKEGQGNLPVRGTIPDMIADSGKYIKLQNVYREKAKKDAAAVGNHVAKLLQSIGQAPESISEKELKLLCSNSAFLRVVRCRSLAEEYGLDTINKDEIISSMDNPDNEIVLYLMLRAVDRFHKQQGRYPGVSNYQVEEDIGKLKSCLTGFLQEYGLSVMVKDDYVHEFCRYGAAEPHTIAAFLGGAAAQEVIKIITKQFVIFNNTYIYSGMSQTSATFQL

[16] = test system: human clear cell sarcoma SU-CCS-1 cell lines; experiment: Example 18: tumor growth inhibition in mice, combinational treatment with doxorubicin; assay type: in vivo; details: day 22
From the text: RTVn=TVn/TV1 (equation D)
BWCn (%)=(BWn−BW1)/BW1×100 (equation F)
The test ended on day 22.
The control group was untreated.

[17] = IC50 of Reference Example Compound 55 : IC50 of other compound = 1:value
[18] = SU-CCS-1 in mice, intravenously 8 mg/kg/day, day 1

Row | IC50 [1] | IC50 [2] | IC50 [3] | IC50 [4] | IC50 [5] | IC50 [6] | IC50 [7] | IC50 [8] | IC50 [9] | IC50 [10] | IC50 [14] | SMILES | also measured
1 | 500 nM | 220 nM | 120 nM | 1.7 nM | 380 nM | 480 nM | 120 nM | 6.4 nM | 11 nM | 5.4 nM | 5100 nM | CNc1cc(F)c(C#Cc2cn([C@@H]3O[C@H](CNS(N)(=O)=O)[C@@H](O)[C@H]3O)c3ncnc(N)c23)c(F)c1 [Reference Example 25, 4-Amino-5-[2-[2,6-difluoro-4-(methylamino)phenyl]ethynyl]-7-[(2R,3R,4S,5R)-3,4-dihydroxy-5-[(sulfamoylamino)methyl]tetrahydrofuran-2-yl]pyrrolo[2,3-d]pyrimidine] | –
2 | 280 nM | 420 nM | 150 nM | 4 nM | 560 nM | 640 nM | 560 nM | 14 nM | 20 nM | 49 nM | 6600 nM | Nc1ncnc2c1c(C#Cc1c(F)cc(N3CC[C@@H](F)C3)cc1F)cn2[C@@H]1O[C@H](CNS(N)(=O)=O)[C@@H](O)[C@H]1O [Reference Example 29, 4-Amino-5-[2-[2,6-difluoro-4-[(3R)-3-fluoropyrrolidin-1-yl]phenyl]ethynyl]-7-[(2R,3R,4S,5R)-3,4-dihydroxy-5-[(sulfamoylamino)methyl]tetrahydrofuran-2-yl]pyrrolo[2,3-d]pyrimidine] | –
3 | 680 nM | – | 110 nM | 5.8 nM | 1200 nM | 140 nM | 710 nM | 14 nM | 32 nM | 91 nM | 560 nM | CN1CCOc2c1ccc(F)c2C#Cc1cn([C@@H]2O[C@H](CNS(N)(=O)=O)[C@@H](O)[C@H]2O)c2ncnc(N)c12 [Reference Example 64, 8-[2-[4-Amino-7-[(2R,3R,4S,5R)-3,4-dihydroxy-5-[(sulfamoylamino)methyl]tetrahydrofuran-2-yl]pyrrolo[2,3-d]pyrimidin-5-yl]ethynyl]-7-fluoro-4-methyl-2,3-dihydro-1,4-benzoxazine] | –
4 | 510 nM | 270 nM | 120 nM | 8.8 nM | 890 nM | 76 nM | 1600 nM | 18 nM | 38 nM | 22 nM | 130 nM | CN1CCOc2c1ccc(F)c2C#Cc1cn([C@@H]2C[C@H](CNS(N)(=O)=O)[C@@H](O)[C@H]2O)c2ncnc(N)c12 [Reference Example 122, 8-[2-[4-amino-7-[(1R,2S,3R,4R)-2,3-dihydroxy-4-[(sulfamoylamino)methyl]cyclopentyl]pyrrolo[2,3-d]pyrimidin-5-yl]ethynyl]-7-fluoro-4-methyl-2,3-dihydro-1,4-benzoxazine] | –
5 | 460 nM | 24 nM | 130 nM | 3.2 nM | 210 nM | 32 nM | 160 nM | 12 nM | 25 nM | 6.4 nM | 170 nM | CSc1cccc(F)c1C#Cc1cn([C@@H]2C=C(CNS(N)(=O)=O)[C@@H](O)[C@H]2O)c2ncnc(N)c12 [Reference Example 130, 4-Amino-7-[(1R,4R,5S)-4,5-dihydroxy-3-[(sulfamoylamino)methyl]cyclopent-2-en-1-yl]-5-[2-(2-fluoro-6-methylsulfanyl-phenyl)ethynyl]pyrrolo[2,3-d]pyrimidine] | –

The next lines start with the compound.

Row | SMILES | IC50 [1] | IC50 [2] | IC50 [3] | IC50 [4] | IC50 [5] | IC50 [6] | IC50 [7] | IC50 [8] | IC50 [9] | IC50 [10] | IC50 [14] | also measured
6 | NS(=O)(=O)OC[C@@H]1C[C@@H](n2ccc3c(N[C@H]4CCc5ccccc54)ncnc32)CC1O (stereo partly drawn) [Comp. Example, N-[(1S)-1-indanyl]-7-[(1R)-3α-hydroxy-4α-(sulfamoyloxymethyl)cyclopentyl]-7H-pyrrolo[2,3-d]pyrimidin-4-amine] | 410 nM | 1400 nM | 560 nM | 89 nM | 1500 nM | 1900 nM | 750 nM | 89 nM | 110 nM | 180 nM | – | –
7 | COc1cccc2c1C(=O)c1c(O)c3c(c(O)c1C2=O)C[C@@](O)(C(=O)CO)C[C@@H]3O[C@H]1C[C@H](N)[C@H](O)[C@H](C)O1 [Doxorubicin, doxorubicin] | – | – | – | – | – | – | – | – | – | – | – | IC50 Ratio ([11]; HOS): 2; CI ([11]; HOS, Reference Example Compound 55:other compound 1:1.7): 0.77; CI ([11]; HOS, Reference Example Compound 55:other compound 1:5): 0.61; Comprehensive Evaluation ([11]; HOS): Moderate
8 | CC(C)C[C@H](NC(=O)CNC(=O)c1cc(Cl)ccc1Cl)B(O)O [Ixazomib, ixazomib] | – | – | – | – | – | – | – | – | – | – | – | IC50 Ratio [12, 17]: 19; CI ([12]; Reference Example Compound 55:other compound 1:10): 0.82; CI ([12]; Reference Example Compound 55:other compound 1:30): 0.94; Comprehensive Evaluation ([12]; combined use with Reference Example Compound 55): Additive (0.9-1.10)
9 | Cc1[nH]c2ccccc2c1CCNCc1ccc(/C=C/C(=O)NO)cc1 [Panobinostat, panobinostat] | – | – | – | – | – | – | – | – | – | – | – | IC50 Ratio [13, 17]: 0.08; CI ([13]; Reference Example Compound 55:other compound 1:0.07): 0.90; CI ([13]; Reference Example Compound 55:other compound 1:0.22): 0.61; Comprehensive Evaluation [13]: Additive (0.9-1.10)
10 | NCCNc1ccc(NCCN)c2c1C(=O)c1ccncc1C2=O [Pixantrone, pixantrone] | – | – | – | – | – | – | – | – | – | – | – | IC50 Ratio ([11]; MM.1S): 8.4; CI ([11]; MM.1S, Reference Example Compound 55:other compound 1:3.7): 0.73; CI ([11]; MM.1S, Reference Example Compound 55:other compound 1:11): 0.84; Comprehensive Evaluation ([11]; MM.1S): Moderate
11 | Nc1ncnc2c1c(C#Cc1c(F)cccc1F)cn2[C@@H]1O[C@H](CNS(N)(=O)=O)[C@@H](O)[C@H]1O [Reference Example 1, 4-Amino-5-[2-(2,6-difluorophenyl)ethynyl]-7-[(2R,3R,4S,5R)-3,4-dihydroxy-5-[(sulfamoylamino)methyl]tetrahydrofuran-2-yl]pyrrolo[2,3-d]pyrimidine] | 650 nM | 110 nM | 260 nM | 6.2 nM | 730 nM | 460 nM | 730 nM | 16 nM | 21 nM | 22 nM | > 10000 nM | IC50 [15]: ≤ 0.003 µM
12 | O=C(CCCCCCC(=O)Nc1ccccc1)NO [Vorinostat, vorinostat] | – | – | – | – | – | – | – | – | – | – | – | Comprehensive Evaluation [13]: Additive (0.9-1.10)
13 | COc1cccc2c1C(=O)c1c(O)c3c(c(O)c1C2=O)C[C@@](O)(C(=O)CO)C[C@@H]3O[C@H]1C[C@H](N)[C@H](O)[C@H](C)O1 [doxorubicin hydrochloride] | – | – | – | – | – | – | – | – | – | – | – | RTV22 compared with the control group (Dunnett's test) ([16]; SU-CCS-1 in BALB/cAJcl-nu/nu mice, reference example compound 12.5 or 25 mg/kg/day iv day 1 and 8, doxorubicin hydrochloride 8 mg/kg/day iv day 1): significantly lower; BWC22 (%) Mean ± SD [16, 18]: −0.3 ± 2.6%; RTV22 Mean ± SD [16, 18]: 6.6 ± 0.8; T/C22 (%) [16, 18]: 74%
